Measured values from patent US20240325574A1, “EXTRADOMAIN B FIBRONECTIN TARGETING PEPTIDES AND DERIVATIVES FOR CANCER IMAGING AND THERAPY” (MOLECULAR THERANOSTICS, LLC, priority 2023, published 2024).
Where no end group is shown, it is not given here. S0456 = NIR dye, conjugated to the peptide N-terminus

Key:
[1] = tested on: human breast cancer MDA-MB-231 TNBC xenograft; test: Fluorescence imaging after intravenous injection in MDA-MB-231 TNBC xenograft mice; type: in vivo; settings: 10 nmol/mouse IV, imaged 60 minutes post injection
Procedure: FIG. 4 provide a fluorescence image of mouse bearing human breast cancer MDA-MB-231 TNBC xenograft after IV injection of ZD2-S0456, showing ZD2-S0456 staining to the tumor.
The specific staining of ZD2-S0456 to human TNBC tumors comparing to normal tissues was investigated after intravenous injection of ZD2-S0456 in mouse xenograft models (FIG. 4). Mouse were injected with 10 nmol/mouse ZD2-S0456 and imaged 60 minutes post injection.

HSC3 HNC xenograft [2] = test: Fluorescence imaging of tumor and major organs after intravenous injection in HSC3 HNC xenograft mice; settings: 10 nmol/mouse IV, 60 minutes post injection, ex vivo tissue imaging; no signal after PBS
From the text: (§1) FIGS. 3A and 3B provide images showing (A) fluorescence images of the organ tissues of the mice received IV injection of ZD2-S0456, showing ZD2-S0456 binding to HSC3 HNC xenograft. 1: kidney; 2: heart; 3: spleen; 4: brain; 5: muscle; 6: tumor; 7: liver; 8: lung. […] (B) Fluorescence image of mice bearing HSC3 HNC xenografts topically stained with PBS or ZD2-Cy5.5.
(§2) The specific staining of ZD2-S0456 to human HNC tumors comparing to normal tissues was investigated after intravenous injection of ZD2-S0456 in mouse xenograft models (FIG. 3). Mice were injected with 10 nmol/mouse ZD2-S0456 or PBS and euthanized 60 minutes post injection to collect tumor tissue and major organs. […] Furthermore, ZD2-S0456 can identify the tumor margin by topical staining of mouse xenograft tumors. The skin atop the HSC3 HNC xenograft tumor was removed to expose the tumor while the mouse was under anesthesia. Then 1 drop of 40 μM ZD2-Cy5.5 was topically applied to the tumor and surrounding tissues, which was rinsed with PBS after 2 minutes.

EDB fragment = EDB fragment (Homo sapiens, UniProt P02751); settings: background, earlier work (U.S. Pat. No. 10,653,801); cited from earlier work
EDB fragment, sequence (P02751 1271-1359 limits assumed): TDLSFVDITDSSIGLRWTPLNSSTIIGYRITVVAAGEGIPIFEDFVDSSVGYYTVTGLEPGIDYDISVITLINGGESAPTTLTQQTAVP

HSC3 HNC xenograft [3] = test: Topical staining of exposed HSC3 HNC xenograft tumor, fluorescence imaging; type: in vivo, mouse; settings: 1 drop of 40 μM applied topically, rinsed with PBS after 2 minutes
From the text: as §1, §2

ZD2-S0456: ZD2 peptide with NIR dye S0456 conjugated to its N-terminus (S0456-TVRTSAD-OH)
Fluorescence signal in the tumor compared to surrounding normal tissues [1]: stronger signal in the tumor
Fluorescence signal in the tumor (HSC3 HNC xenograft [2]): strong signal in the tumor

TVRTSAD [ZD2]
Binding affinity to the EDB fragment (EDB fragment): moderate binding affinity

ZD2-Cy5.5: ZD2 targeted fluorescence dye (Cy5.5) (TVRTSAD; also: Cy5.5 dye conjugated)
Fluorescence signal on tumor vs surrounding tissues after topical staining (HSC3 HNC xenograft [3]): strong fluorescence signal on the tumor but not the surrounding tissues
